From US9145372B2, “Pyridazine derivatives, compositions and methods for treating cognitive impairment” (AGENEBIO, INC., priority 2010, dated 2015)

What was measured:
[1] = target: T1, GABAA α1 receptors (α1β2γ2) (Homo sapiens, UniProt P14867+P18507); test: GABA-gated Cl- current in Xenopus oocytes expressing GABAA α1β2γ2 (TEVC), off-target activity; type: cell-based; conditions: concentration response 0.01-100 μM; FIGS. 1(A)-(D)
T1 construct: expressed in transfected cells; host or cells: Xenopus laevis oocytes injected with cDNAs
T1 sequence (P14867 28-456): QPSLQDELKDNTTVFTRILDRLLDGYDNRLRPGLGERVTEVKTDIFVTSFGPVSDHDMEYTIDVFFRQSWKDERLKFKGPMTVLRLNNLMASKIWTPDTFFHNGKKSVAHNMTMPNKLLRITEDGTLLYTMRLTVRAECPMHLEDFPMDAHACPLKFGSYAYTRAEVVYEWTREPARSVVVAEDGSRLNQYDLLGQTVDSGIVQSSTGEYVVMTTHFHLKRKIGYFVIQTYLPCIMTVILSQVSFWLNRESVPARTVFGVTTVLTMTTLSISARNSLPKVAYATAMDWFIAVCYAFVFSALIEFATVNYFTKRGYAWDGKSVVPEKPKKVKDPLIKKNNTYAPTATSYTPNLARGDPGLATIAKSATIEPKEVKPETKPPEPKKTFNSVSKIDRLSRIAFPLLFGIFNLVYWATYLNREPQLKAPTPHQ
T1 sequence (P47870 25-512 partner limits assumed): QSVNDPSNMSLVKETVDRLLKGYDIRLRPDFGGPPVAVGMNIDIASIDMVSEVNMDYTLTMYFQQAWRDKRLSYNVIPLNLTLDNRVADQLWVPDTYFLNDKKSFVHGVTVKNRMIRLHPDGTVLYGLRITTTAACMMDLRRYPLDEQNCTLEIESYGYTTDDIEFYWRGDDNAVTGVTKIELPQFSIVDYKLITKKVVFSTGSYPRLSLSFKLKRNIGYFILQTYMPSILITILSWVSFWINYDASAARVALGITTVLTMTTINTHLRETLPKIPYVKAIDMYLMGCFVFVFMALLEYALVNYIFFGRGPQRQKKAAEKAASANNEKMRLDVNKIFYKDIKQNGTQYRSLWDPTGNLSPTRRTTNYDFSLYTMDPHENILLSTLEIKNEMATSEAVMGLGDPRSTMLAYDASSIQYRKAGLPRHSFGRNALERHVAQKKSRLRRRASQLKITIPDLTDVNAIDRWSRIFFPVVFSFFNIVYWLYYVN
T1 sequence (P18507 40-467 limits assumed): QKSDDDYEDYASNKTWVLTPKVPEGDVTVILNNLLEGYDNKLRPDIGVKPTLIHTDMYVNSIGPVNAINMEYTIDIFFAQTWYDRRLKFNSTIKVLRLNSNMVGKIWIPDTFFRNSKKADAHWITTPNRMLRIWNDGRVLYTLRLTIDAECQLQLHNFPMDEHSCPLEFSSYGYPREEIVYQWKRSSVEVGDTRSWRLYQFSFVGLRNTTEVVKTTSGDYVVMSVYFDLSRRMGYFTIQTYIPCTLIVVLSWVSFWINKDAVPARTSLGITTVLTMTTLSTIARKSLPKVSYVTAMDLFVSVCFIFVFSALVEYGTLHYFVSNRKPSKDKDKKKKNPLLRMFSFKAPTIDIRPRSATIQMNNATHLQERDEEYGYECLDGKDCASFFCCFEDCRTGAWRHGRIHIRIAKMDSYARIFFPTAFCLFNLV
From the text: (§1) Step 1: Establish Clones of GABAAR Subunits (α5, β3, γ2, α1, α2 and α3) and Prepare the Corresponding cRNAs: Human clones of GABAA-R α5, β3, γ2, α1, α2 and α3 subunits are obtained from commercial resources (e.g., OriGene, http://www.origene.com and Genescript, http://www.genescript.com). These clones are engineered into pRC, pCDM, pcDNA, and pBluescript KSM vector (for oocyte expression) or other equivalent expression vectors. Conventional transfection agents (e.g., FuGene, Lipofectamine 2000, or others) are used to transiently transfect host cells.
Xenopus oocytes were isolated according to previously published procedures (see, e.g., Goldin et al. Methods Enzymol. 207:266-279 (1992)). The isolated Xenopus oocytes were injected with GABAAR cDNAs (1:1:1 ratio for a total volume of 1 ng of α1βγ2 or α5β3γ2) cloned into mammalian expression vectors. In particular, α1, β2, γ2 were cloned into pcDNA3.1. and α5 and β3 were cloned into pcDNA3.1 myc-His. Vectors were verified by partial sequencing (DNA Core Facility, University of Southern California, USA). After injection, oocytes were stored in incubation medium (Modified Barth's Saline (MBS) supplemented with 2 mM sodium pyruvate, 0.5 mM theophylline and 50 mg/L gentamycin), in petri dishes (VWR, San Dimas, Calif.). All solutions were sterilized by passage through 0.22 μM filters. […] Oocytes were used in experiments for up to 5 days after injection.
A high-throughput two-electrode voltage clamp (TEVC) system (OpusXpress A6000; Molecular Devices, Union City, Calif.), which automates the impalement of oocytes, fluid delivery and current recording from 8 oocytes in parallel, was used to carry out all electrophysiological recordings.
Xenopus Oocytes expressing GABAA-R α5β3γ2 or α1β2γ2 subtype, as prepared in section (A) above, were placed in 8 chambers of OpusXpress and perfused by MBS at 3 mL/min. Glass electrodes back-filled with 3 M KCl (0.5-3 megaohms) were used. Membrane potential of oocytes was voltage-clamped at −60 mV. Oocytes with holding current larger than 0.5 μA were discarded.
Data for each experimental point were obtained from 4 or more Xenopus oocytes and from at least two different frogs. The n refers to the number of Xenopus oocytes tested. Results are expressed as mean±SEM. […] Prism (GraphPAD Software, San Diego, Calif.) and Excel were used to perform curve fitting and statistical analyses.

[2] = target: T2, GABAA α5β3γ2 subtype receptor (Homo sapiens, UniProt P18507+P31644); test: GABA-gated Cl- current potentiation in Xenopus oocytes expressing GABAA α5β3γ2 (TEVC); type: cell-based
T2 construct: myc-His (vector-encoded); expressed in transfected cells; host or cells: Xenopus laevis oocytes injected with cDNAs
T2 sequence (P31644 32-462): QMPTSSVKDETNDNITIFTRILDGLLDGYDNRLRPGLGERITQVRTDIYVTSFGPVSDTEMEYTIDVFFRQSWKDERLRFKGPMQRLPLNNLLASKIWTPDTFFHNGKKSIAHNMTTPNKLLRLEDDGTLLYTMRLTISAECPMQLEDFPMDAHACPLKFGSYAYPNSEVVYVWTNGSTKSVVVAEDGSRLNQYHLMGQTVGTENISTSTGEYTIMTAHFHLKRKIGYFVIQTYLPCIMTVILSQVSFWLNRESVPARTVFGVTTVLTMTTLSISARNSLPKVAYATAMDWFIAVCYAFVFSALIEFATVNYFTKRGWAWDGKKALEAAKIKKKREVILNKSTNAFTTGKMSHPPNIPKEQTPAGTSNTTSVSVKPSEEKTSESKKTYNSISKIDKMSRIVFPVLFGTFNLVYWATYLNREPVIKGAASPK
T2 sequence (P28472 26-473 partner): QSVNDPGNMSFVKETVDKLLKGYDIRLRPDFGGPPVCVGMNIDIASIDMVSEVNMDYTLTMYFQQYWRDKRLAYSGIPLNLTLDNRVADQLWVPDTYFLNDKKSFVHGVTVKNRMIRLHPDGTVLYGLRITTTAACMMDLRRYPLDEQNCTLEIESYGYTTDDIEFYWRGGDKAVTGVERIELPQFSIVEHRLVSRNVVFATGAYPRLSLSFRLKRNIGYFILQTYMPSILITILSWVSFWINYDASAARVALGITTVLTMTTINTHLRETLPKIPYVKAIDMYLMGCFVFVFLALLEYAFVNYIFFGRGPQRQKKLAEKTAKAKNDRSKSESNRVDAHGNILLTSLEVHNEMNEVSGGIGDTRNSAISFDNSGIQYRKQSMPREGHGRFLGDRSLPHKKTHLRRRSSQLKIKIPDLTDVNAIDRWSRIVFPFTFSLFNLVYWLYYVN
T2 sequence (P18507 40-467 limits assumed): T1 sequence (P18507 40-467 limits assumed)
From the text: as §1
Adult female Xenopus laevis frogs were purchased from Nasco (Fort Atkinson, Wis.). […] All chemicals used were of reagent grade. […] Stock solutions of Diazepam, Flumazenil and compounds of the present invention were prepared in dimethyl sulfoxide (DMSO) and then diluted to an appropriate concentration with the extracellular solution just before use. To avoid adverse effects from DMSO exposure, the final concentration of DMSO was not higher than 0.3% (v/v).
Upon conclusion of compound testing and successful washout, a 1.0 μM Diazepam was tested and used for comparative activity on the two GABAAR subtypes.
Other concentrations of the test compound may also be tested following the same protocol.
Results are expressed as mean±SEM.

SMILES: COC(=O)c1coc(-c2c(-c3ccccc3)cnnc2-c2cccc(OC)c2)n1 [Compound 29]
- positive allosteric modulation at GABAA α1 receptors [1]: markedly reduced positive allosteric modulation
- positive allosteric modulation of GABA at GABAA α5 receptors ([2]; concentration response 0.01-100 μM, FIGS. 1(A)-(D)): strong positive allosteric modulation
- activation at 1 µM ([2]; read-out: GABA α5 EC50 % potentiation): 12.3%
